Experimental data from ChEMBL document CHEMBL1201862, “PubChem BioAssay data set” (2004).
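Five concentrations, 48 hours, 96-well plates. GI50 marks 50% less growth.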 Calls of active or inactive are those of the source. No stated cut-off is given here; in the data, active = GI50 up to about 1.1 µM and inactive = higher.

Columns and labels:
Assay in all cases: inhibition of tumour cell growth, NCI panel, 48 h
LXFL 529 = test system: LXFL 529
XF498 = test system: XF498
KM-20L2 = test system: KM-20L2
RXF 631 = test system: RXF 631
HOP-18 = test system: HOP-18
DMS-273 = test system: DMS-273
SNB-78 = test system: SNB-78
M19-MEL = test system: M19-MEL
DLD-1 = test system: DLD-1

Measured: GI50

C[N+](C)(C)CC(=O)N/N=c1\cc(C(=O)Nc2ccc(N=O)cc2C#N)oc2cc(O)ccc12
inactive: LXFL 529 > 100 µM | XF498 > 100 µM | KM-20L2 > 100 µM | RXF 631 > 100 µM | HOP-18 > 100 µM | DMS-273 > 100 µM | SNB-78 > 100 µM | M19-MEL > 100 µM | DLD-1 > 100 µM
